# Measurements reported in patent publication US20110263610A1, “COMPOUNDS AND COMPOSITIONS AS ITPKB INHIBITORS” (IRM LLC, priority 2008, published 2011).
# Biological target: T1, ITPKb (Mus musculus, UniProt B2RXC2)
# T1 construct: murine ITPKb residues 640-942; MGSDKIHHHHHH (His6 tag from MH4 plasmid) (N); made in house; host or cells: Escherichia coli HK100
# T1 sequence (B2RXC2 640-942): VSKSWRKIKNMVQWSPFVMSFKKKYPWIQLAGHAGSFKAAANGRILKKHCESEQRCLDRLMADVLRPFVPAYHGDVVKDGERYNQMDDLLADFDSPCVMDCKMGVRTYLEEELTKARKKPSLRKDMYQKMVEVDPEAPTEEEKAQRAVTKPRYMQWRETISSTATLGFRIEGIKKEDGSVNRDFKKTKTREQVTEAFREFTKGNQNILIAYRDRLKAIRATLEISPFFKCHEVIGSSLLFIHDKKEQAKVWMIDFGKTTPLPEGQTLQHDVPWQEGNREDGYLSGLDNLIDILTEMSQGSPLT
# Assay: Biochemical measurement of ITPKb activity (Kinase-Glo ATP depletion assay); inhibiting the phosphorylation of IP3 to IP4
# Parameters: species or system murine
# Details: Table 1; inhibiting the phosphorylation of IP3 to IP4; read-out: IC50
# Description: Compounds of the present invention are assayed to measure their capacity to inhibit ITPKb according to the following assays.
# The DNA sequence encoding murine ITPKb residues 640-942 is amplified from a full-length construct in mammalian expression vector pKDNZ by PCR. The 3′-primer incorporates a stop codon and an overhanging PacI site. The product is digested with Pad before being ligated into the MH4 plasmid which has been prepared by digestion with PmlI and PacI. Cloning into the MH4 plasmid adds the sequence MGSDKIHHHHHH to the N-terminus of the translated region. Mutant enzymes are made by site-directed mutagenesis using the Stratagene Quikchange kit.
# ITPKb is expressed in the HK100 strain of Escherichia coli. Typically, a 4 L batch of cells is grown in LB with […] ampicillin to 0.5 A600 at 30 degrees C., before induction with 0.02% L-arabinose for 6 hours. Cells are harvested by centrifugation, and pellets are resuspended in 50 mL of 50 mM Tris (pH 8), 100 mM NaCl, 1 mM TCEP, and 0.1 mg/mL lysozyme, with 1 Complete protease inhibitor tablet (Roche). Cells are disrupted by sonication, and debris is removed by centrifugation for 40 minutes at 35000 g.
# Initial purification is performed using three nickel-Sepharose Hi-Trap HP 1 mL columns (Amersham) connected in series. After application of the pellet supernatants, the bound material is washed with 20 mM Tris (pH 8.0), 20 mM imidazole, 10% glycerol (v/v), and 1 mM TCEP before elution with an imidazole gradient up to 200 mM.
# Fractions containing ITPKb are identified by SDS-PAGE, and the pure fractions are concentrated and buffer exchanged using centriprep 20 15 kDa columns into 20 mM Tris (pH 8), 200 mM KCl, 5 mM MgCl2, 0.5 mM DTT, 10% glycerol, 1 μM IP3, and 20 μM ATP to a final protein concentration of 7 mg/mL.
# ITPKb activity is determined using the Kinase-Glo (Promega) ATP depletion assay. The assay reaction buffer consists of 50 mM Tris (pH 8.0), 100 mM NaCl, 1 mM DTT, 10% glycerol, 5 mM MgCl2, 1 μM ATP, and 10 μM IP3 (Alexis Biochemicals). 50 nl of inhibitor is then added to each 40 μL reaction followed by a 10 μL addition of purified ITPKb (final concentration of 60 nM). The reaction mixture is incubated for 60 minutes at room temperature and stopped by the addition of an equal volume of kinase-glo reagent (Promega). Luminescence is measured using a Molecular Devices Acquest instrument.
row,Structure (SMILES),IC50 [nM]
1,C[C@@H]1CN(Cc2c[nH]nc2C(=O)Nc2cc(-c3ccco3)n[nH]2)CCN1c1ccc(C(F)(F)F)cn1 [Example 31],5330
2,C[C@@H]1CN(Cc2c[nH]nc2C(=O)N2CCC(O)CC2)CCN1c1ccc(C(F)(F)F)cn1 [Example 36],> 10000
3,FC(F)(F)c1ccc(N2CCN(Cc3c[nH]nc3-c3cccs3)CC2)nc1 [Example 22],4320
4,C[C@@H]1CN(Cc2c[nH]nc2/C=C2\NC(=N)NC2=O)CCN1c1ccc(C(F)(F)F)cn1 [Example 50],99
5,C[C@@H]1CN(Cc2c[nH]nc2C(=O)N2CCC(O)C2)CCN1c1ccc(C(F)(F)F)cn1 (some centres unmarked) [Example 35],> 10000
6,C[C@@H]1CN(Cc2c[nH]nc2-c2ccc(C#N)c(=O)[nH]2)CCN1c1ccc(C(F)(F)F)cn1 [Example 21],49
7,C[C@@H]1CN(Cc2c[nH]nc2-c2cc(C(=O)N[C@@H](C)CO)c[nH]2)CCN1c1ccc(C(F)(F)F)cn1 [Example 45],6
8,C[C@@H]1CN(Cc2c[nH]nc2C(=O)N2CC(O)C2)CCN1c1ccc(C(F)(F)F)cn1 [Example 34],> 10000
9,C[C@@H]1CN(Cc2c[nH]nc2C2CCN(C=O)CC2)CCN1c1ccc(C(F)(F)F)cn1 [Example 49],241
10,N#Cc1c[nH]c(-c2n[nH]cc2CN2CCN(c3ccc(C(F)(F)F)cn3)[C@H](C(F)(F)F)C2)c1 [Example 29],9
11,C[C@@H]1CN(Cc2c[nH]nc2-c2cc(C(=O)N(C)C)c[nH]2)CCN1c1ccc(C(F)(F)F)cn1 [Example 41],85
12,C[C@@H]1CN(Cc2c[nH]nc2-c2ccc(C(=O)O)o2)CCN1c1ccc(C(F)(F)F)cn1 [Example 38],435
13,C[C@@H]1CN(Cc2c[nH]nc2-c2nc3c([nH]2)CCCC3)CCN1c1ccc(C(F)(F)F)cn1 [Example 26],5010
14,C[C@@H]1CN(Cc2c[nH]nc2C2=CCN(C(=O)CCO)CC2)CCN1c1ccc(C(F)(F)F)cn1 [Example 54],80
15,C[C@@H]1CN(Cc2c[nH]nc2-c2ccnc3[nH]ccc23)CCN1c1ccc(C(F)(F)F)cn1 [Example 40],478
16,COC(=O)c1ccc(-c2n[nH]cc2CN2CCN(c3ccc(C(F)(F)F)cn3)[C@H](C)C2)o1 [Example 37],984

# More lines, now with the values ahead:
row,IC50 [nM],Structure (SMILES)
1,> 10000,Cc1nc(-c2n[nH]cc2CN2CCN(c3ccc(C(F)(F)F)cn3)[C@H](C)C2)[nH]c1C [Example 25]
2,9800,C[C@@H]1CN(Cc2c[nH]nc2-c2nc3cc(F)ccc3[nH]2)CCN1c1ccc(C(F)(F)F)cn1 [Example 27]
3,8,C[C@@H]1CN(Cc2c[nH]nc2-c2ccc(C(N)=O)o2)CCN1c1ccc(C(F)(F)F)cn1 [Example 39]

# Same assay, conditions: Table 2; inhibiting the phosphorylation of IP3 to IP4; read-out: IC50
row,Structure (SMILES),IC50 [nM]
1,"C[C@@H]1CN(Cc2c[nH]nc2C2=CCN(C=O)CC2)CCN1c1ccc(C(F)(F)F)cn1 [Example 10, (R)-4-(4-((3-methyl-4-(5-(trifluoromethyl)pyridin-2-yl)piperazin-1-yl)methyl)-1H-pyrazol-3-yl)-5,6-dihydropyridine-1(2H)-carbaldehyde]",10
2,"C[C@@H]1CN(Cc2n[nH]nc2-c2ccc(C#N)cc2)CCN1c1ccc(C(F)(F)F)cc1 [Example 19, (R)-4-(5-((3-methyl-4-(4-(trifluoromethyl)phenyl)piperazin-1-yl)methyl)-2H-1,2,3-triazol-4-yl)benzonitrile]",40

# The next lines start with the values.
row,IC50 [nM],Structure (SMILES)
1,1230,"C[C@@H]1CN(Cc2c[nH]nc2-c2nc(-c3ccccc3)c[nH]2)CCN1c1ccc(C(F)(F)F)cn1 [Example 15, (R)-2-methyl-4-((3-(4-phenyl-1H-imidazol-2-yl)-1H-pyrazol-4-yl)methyl)-1-(5-(trifluoromethyl)pyridin-2-yl)piperazine]"
2,102,"C[C@@H]1CN(Cc2c[nH]nc2-c2nc(C#N)c[nH]2)CCN1c1ccc(C(F)(F)F)cn1 [Example 13, (R)-2-(4-((3-methyl-4-(5-(trifluoromethyl)pyridin-2-yl)piperazin-1-yl)methyl)-1H-pyrazol-3-yl)-1H-imidazole-4-carbonitrile]"
3,975,"C[C@@H]1CN(Cc2c[nH]nc2-c2nc3cnccc3[nH]2)CCN1c1ccc(C(F)(F)F)cn1 [Example 16, (R)-2-(4-((3-methyl-4-(5-(trifluoromethyl)pyridin-2-yl)piperazin-1-yl)methyl)-1H-pyrazol-3-yl)-1H-imidazo[4,5-c]pyridine]"
4,24,"C[C@@H]1CN(Cc2c[nH]nc2-c2nc(C(N)=O)c[nH]2)CCN1c1ccc(C(F)(F)F)cn1 [Example 14, (R)-2-(4-((3-methyl-4-(5-(trifluoromethyl)pyridin-2-yl)piperazin-1-yl)methyl)-1H-pyrazol-3-yl)-1H-imidazole-4-carboxamide]"
5,475,"C[C@@H]1CN(Cc2c[nH]nc2-c2nc(C(=N)N)c[nH]2)CCN1c1ccc(C(F)(F)F)cn1 [Example 12, (R)-2-(4-((3-methyl-4-(5-(trifluoromethyl)pyridin-2-yl)piperazin-1-yl)methyl)-1H-pyrazol-3-yl)-1H-imidazole-4-carboximidamide]"
6,1480,"C[C@@H]1CN(Cc2c[nH]nc2-c2nc(C(F)(F)F)c[nH]2)CCN1c1ccc(C(F)(F)F)cn1 [Example 11, (R)-2-methyl-4-((3-(4-(trifluoromethyl)-1H-imidazol-2-yl)-1H-pyrazol-4-yl)methyl)-1-(5-(trifluoromethyl)pyridin-2-yl)piperazine]"

# Same assay, conditions: read-out: IC50 in inhibiting the phosphorylation of IP3 to IP4
row,IC50 [nM],Structure (SMILES)
1,2,"C[C@@H]1CN(Cc2c[nH]nc2-c2c[nH]c(C(N)=O)c2)CCN1c1ccc(C(F)(F)F)cn1 [Example 7, (R)-4-(4-((3-methyl-4-(5-(trifluoromethyl)pyridin-2-yl)piperazin-1-yl)methyl)-1H-pyrazol-3-yl)-1H-pyrrole-2-carboxamide]"
2,9,"C[C@@H]1CN(Cc2c[nH]nc2-c2cc(C#N)c[nH]2)CCN1c1ccc(C(F)(F)F)cn1 [Example 1, (R)-5-(4-((3-methyl-4-(5-(trifluoromethyl)pyridin-2-yl)piperazin-1-yl)methyl)-1H-pyrazol-3-yl)-1H-pyrrole-3-carbonitrile]"
3,3,"C[C@@H]1CN(Cc2c[nH]nc2-c2cc(C(N)=O)c[nH]2)CCN1c1ccc(C(F)(F)F)cn1 [Example 2, (R)-5-(4-((3-methyl-4-(5-(trifluoromethyl)pyridin-2-yl)piperazin-1-yl)methyl)-1H-pyrazol-3-yl)-1H-pyrrole-3-carboxamide]"
4,11,"CNC(=O)c1c[nH]c(-c2n[nH]cc2CN2CCN(c3ccc(C(F)(F)F)cn3)[C@H](C)C2)c1 [Example 3, (R)—N-methyl-5-(4-((3-methyl-4-(5-(trifluoromethyl)pyridin-2-yl)piperazin-1-yl)methyl)-1H-pyrazol-3-yl)-1H-pyrrole-3-carboxamide]"
5,81,"C[C@@H]1CN(Cc2c[nH]nc2-c2ccc(C#N)[nH]2)CCN1c1ccc(C(F)(F)F)cn1 [Example 4, (R)-5-(4-((3-methyl-4-(5-(trifluoromethyl)pyridin-2-yl)piperazin-1-yl)methyl)-1H-pyrazol-3-yl)-1H-pyrrole-2-carbonitrile]"
